Results from patent US20100305215A1, “DERMAL REGENERATION ENHANCER” (JAPAN SCIENCE AND TECHNOLOGY AGENCY, priority 2005, published 2010).

Test system: skin of colored guinea pigs having melanin pigment-producing cells
Test: Dermal regeneration enhancing action of liquid crystal versus its constituting components on guinea pig skin (Example 4)
Format: in vivo, guinea pigs (Weiser Maples)
Settings: 30 mg on 2 cm×2 cm shaved back; each sample solely applied
Description: Back of colored guinea pigs having melanin pigment-producing cells (Weiser Maples; six weeks age; male) was shaved, the shaved part was washed with lukewarm water and 30 mg of the above lyotropic liquid crystal was applied to an area of 2 cm×5 cm thereof. After 2 days from the application date under irradiation with any of UVA, UVB and UVA+UVB, skin of the part to which the lyotropic liquid crystal was applied was collected and the slice was fixed with formalin, embedded in paraffin and stained by a Fontana-Masson method where melanin pigment was stained out in black to evaluate the dermal regeneration enhancing action.
Back of colored guinea pigs having melanin pigment-producing cells (Weiser Maples, five weeks age, male) was shaved, the shaved part was washed with lukewarm water, each 30 mg of the four kinds of samples of the lyotropic crystal of (A) of Example 1 and the constituting components thereof—surfactant, oil and polyhydric alcohol—was applied to an area of 2 cm×2 cm thereof and the dermal regeneration enhancing action was evaluated by the method mentioned in (A) of Example 1. Cross-sectional pictures of the skin to which each of the samples was applied are shown in FIG. 6 together with the cross-sectional picture of the skin to which nothing was applied.

| Structure (SMILES) | dermal regeneration enhancing action |
| --- | --- |
| OCC(O)CO [polyhydric alcohol, glycerol] | no dermal regeneration enhancing action was noted |
| CC(C)CCCC(C)CCCC(C)CCCCC(C)CCCC(C)CCCC(C)C (centres unmarked) [oil, squalane] | no dermal regeneration enhancing action was noted |
